Earlier results, collected in patent US20250120988A1, “SMALL MOLECULE COMPOUND FOR TREATING ISCHEMIC STROKE, ITS PREPARATION METHOD, AND APPLICATION” (SHANGHAI SIXTH PEOPLE'S HOSPITAL, priority 2023, published 2025).

Experiments:
[1] = cited from earlier work
NMDARs = conditions: competitive antagonist of NMDARs; read-out: half-blocking dose (IC50) on NMDARs; cited from earlier work
ischemic stroke patients = conditions: clinical trials; cited from earlier work

## O=C(O)[C@@H]1C[C@H](CP(=O)(O)O)CCN1 (racemic) [Selfotel]
[1]
  solubility in water: highly soluble in water
NMDARs
  IC50: < 1 µM
Ischemic stroke patients
  patient mortality compared to the control group: did not significantly reduce patient mortality
  psychiatric symptoms in patients: led to various psychiatric symptoms in patients
